Experimental data as given in patent publication US8658351B2, “Determining liver toxicity of an agent using metabolite biomarkers” (Metabolon, Inc., priority 2009, dated 2014).
Read-outs that look alike come from different tables or passages of the source.

What was measured:
Rats [1] = assay: Rat liver toxicant study: routine clinical chemistry (AST, ALT, TBIL, ALP); assay type: in vivo; settings: day at which change was seen
Experimental: Rats were treated daily with a single oral dose of a known liver toxicants at low and high doses (as shown in Table 3) as well as with a vehicle control containing none of the toxicant. […] Plasma, urine, and liver samples were collected at day 2 and day 5 for metabolomic analysis, liver histopathology, and routine clinical chemistry (i.e., aspartate aminotransferase (AST), alanine aminotransferase (ALT), total bilirubin (TBIL), alkaline phosphatase (ALP)).

Rats [2] = settings: cited from earlier work
Rats [3] = assay: Rat liver toxicant study: liver histopathology; settings: for Histopathology (Steatosis) / Histopathology (Cholestasis) / Histopathology (Necrosis): rats, daily single oral dose; for Histopathology (Steatosis) / Histopathology (Cholestasis): day at which change was seen; for Histopathology (Necrosis): day at which change was seen (samples day 2 and day 5)
Experimental: Rats were treated daily with a single oral dose of a known liver toxicants at low and high doses (as shown in Table 3) as well as with a vehicle control containing none of the toxicant. The hepatotoxic agents listed in Table 3 are known to induce distinct types of liver histopathology as described in Table 4. Plasma, urine, and liver samples were collected at day 2 and day 5 for metabolomic analysis, liver histopathology, and routine clinical chemistry (i.e., aspartate aminotransferase (AST), alanine aminotransferase (ALT), total bilirubin (TBIL), alkaline phosphatase (ALP)).

humans = settings: cited from earlier work
[4] = High dose, agents known to induce distinct types of liver histopathology
[5] = classified as No Rat Tox/Human specific

Question: For `CCSCCC(N)C(=O)O` (racemic) [Ethionine, DL Ethionine], which “Clinical Chemistry TBIL” value (Rats [1]; high dose) is on record?
Answer: Day2~

Question: And the “Clinical Chemistry TBIL” value (Rats [1]; low dose)?
Answer: Day2~

Question: What about the “Classification of toxic effect on liver histopathology (type of histopathology)” value (from here on “Classification … (type of histopathology)”) (Rats [2]; [4]) of the same compound?
Answer: Steatosis

Question: What about the “Histopathology (Steatosis)” value (Rats [3]; high dose) of the same compound?
Answer: Day2~

Question: And the “Histopathology (Steatosis)” value (Rats [3]; low dose)?
Answer: Day2

Question: With `S=C=Nc1cccc2ccccc12` [ANIT, 1-naphthyl isothiocyanate] as the compound, how does the “Clinical Chemistry ALT” value (Rats [1]; high dose) read?
Answer: Day2~

Question: What about the “Clinical Chemistry AST” value (Rats [1]; high dose) of the same compound?
Answer: Day2~

Question: And the “Clinical Chemistry TBIL” value (Rats [1]; high dose)?
Answer: Day2~

Question: And the “Clinical Chemistry ALT” value (Rats [1]; low dose)?
Answer: Day5

Question: And the “Clinical Chemistry TBIL” value (Rats [1]; low dose)?
Answer: Day5

Question: And the “Histopathology (Cholestasis)” value (Rats [3]; high dose)?
Answer: Day2~

Question: What about the “Histopathology (Cholestasis)” value (Rats [3]; low dose) of the same compound?
Answer: Day5

Question: For `CC(=O)Nc1ccc(O)cc1` [Acetaminophen], which “Histopathology (Necrosis)” value (Rats [3]; high dose) is on record?
Answer: Day2

Question: And the “Histopathology (Necrosis)” value (Rats [3]; low dose)?
Answer: Day2

Question: Which “Clinical Chemistry ALP” value (Rats [1]; high dose) does the source give for `O=C(O)COc1nn(Cc2ccccc2)c2ccccc12` [Bendazac] here?
Answer: Day2~

Question: And the “Clinical Chemistry ALT” value (Rats [1]; high dose)?
Answer: Day5

Question: And the “Clinical Chemistry ALP” value (Rats [1]; low dose)?
Answer: Day2

Question: What about the “Clinical Chemistry ALT” value (Rats [1]; low dose) of the same compound?
Answer: Day5

Question: What about the “Classification … (type of histopathology)” value (Rats [2]; rat, in vivo) of the same compound?
Answer: Necrosis

Question: And the “Histopathology (Necrosis)” value (Rats [3]; high dose)?
Answer: Day5

Question: What about the “Histopathology (Necrosis)” value (Rats [3]; low dose) of the same compound?
Answer: Day5

Question: Which results are given for `NC(=O)N1c2ccccc2C=Cc2ccccc21` [Carbamazepine]?
Answer: Hepatotoxicity to humans (humans): known hepatotoxins to humans; Classification of toxic effect on liver histopathology (type of histopathology) (Rats [2]; rat, in vivo): No Histopathology; Hepatotoxic changes in rats (histopathology, clinical chemistry) (Rats [3]; [5]): no hepatotoxic changes

Question: With `ClC(Cl)(Cl)Cl` [Carbon tetrachloride] as the compound, how does the “Classification … (type of histopathology)” value (Rats [2]; [4]) read?
Answer: Steatosis

Question: And the “Histopathology (Steatosis)” value (Rats [3]; high dose)?
Answer: Day2~

Question: What about the “Histopathology (Steatosis)” value (Rats [3]; low dose) of the same compound?
Answer: Day2~

Question: Which Hepatotoxicity to humans (humans) does the source give for `CC(C)C(=O)Nc1ccc([N+](=O)[O-])c(C(F)(F)F)c1` [Flutamide] here?
Answer: known hepatotoxins to humans

Question: And the “Clinical Chemistry TBIL” value (Rats [1]; high dose)?
Answer: Day2

Question: And the “Classification … (type of histopathology)” value (Rats [2]; rat, in vivo)?
Answer: No Histopathology

Question: What about the “Hepatotoxic changes in rats (histopathology, clinical chemistry)” value (Rats [3]; [5]) of the same compound?
Answer: no hepatotoxic changes

Question: With `CC(=O)N1CCN(c2ccc(OCC3COC(Cn4ccnc4)(c4ccc(Cl)cc4Cl)O3)cc2)CC1` (stereo not shown) [Ketoconazole] as the compound, how does the “Classification … (type of histopathology)” value (Rats [2]; rat, in vivo) read?
Answer: Phospholipidosis

Question: Which results are given for `CN(C)CCN(Cc1cccs1)c1ccccn1` [Methapyrilene]?
Answer: Clinical Chemistry ALP (Rats [1]; high dose): Day5; Clinical Chemistry ALT (Rats [1]; high dose): Day2~; Clinical Chemistry AST (Rats [1]; high dose): Day2~; Clinical Chemistry TBIL (Rats [1]; high dose): Day2~; Clinical Chemistry ALT (Rats [1]; low dose): Day5; Clinical Chemistry AST (Rats [1]; low dose): Day5; Clinical Chemistry TBIL (Rats [1]; low dose): Day5; Classification of toxic effect on liver histopathology (type of histopathology) (Rats [2]; rat, in vivo): Necrosis; Histopathology (Necrosis) (Rats [3]; high dose): Day2~; Histopathology (Necrosis) (Rats [3]; low dose): Day5

Question: For `CS(=O)(=O)Nc1ccc([N+](=O)[O-])cc1Oc1ccccc1` [Nimesulide], which “Clinical Chemistry TBIL” value (Rats [1]; high dose) is on record?
Answer: Day2

Question: What about the “Clinical Chemistry ALT” value (Rats [1]; low dose) of the same compound?
Answer: Day5

Question: And the “Clinical Chemistry TBIL” value (Rats [1]; low dose)?
Answer: Day2

Question: And the “Hepatotoxic changes in rats (histopathology, clinical chemistry)” value (Rats [3]; rat, in vivo)?
Answer: no hepatotoxic changes

Question: Which results are given for `CN(C)[C@@H]1C(O)=C(C(N)=O)C(=O)[C@@]2(O)C(O)=C3C(=O)c4c(O)cccc4[C@@](C)(O)[C@H]3C[C@@H]12` [Tetracycline]?
Answer: Histopathology (Steatosis) (Rats [3]; high dose): Day5; Histopathology (Steatosis) (Rats [3]; low dose): Day2~

Question: For `Clc1ccccc1CN1CCc2sccc2C1` [Ticlopidine], which “Histopathology (Necrosis)” value (Rats [3]; high dose) is on record?
Answer: Day5
